Values quoted from earlier work as cited in patent US6054469A, “Substituted tetrahydropyridine derivatives acting on 5-HT receptors” (Merck Sharp & Dohme Ltd., priority 1995, dated 2000).

Settings: therapeutic doses

## CNS(=O)(=O)Cc1ccc2[nH]cc(CCN(C)C)c2c1 [sumatriptan]
  adverse events on administration to humans: adverse cardiovascular events
